From patent US6828322B2, “Triazolo-pyridazine derivatives as ligands for GABA receptors” (Merck Sharp & Dohme Ltd., priority 1998, dated 2004)

Row | Structure (SMILES) | melting point
1 | Cn1ncnc1COc1nn2c(-c3ccccc3F)nnc2cc1C(F)(F)F [Example 35, 3-(2-Fluorophenyl)-6-(2-methyl-2H-1,2,4-triazol-3-ylmethoxy)-7-trifluoromethyl-1,2,4-triazolo[4,3-b]pyridazine] | 123 to 126 °C
2 | Cn1ncnc1COc1nn2c(-c3ccccc3F)nnc2cc1-c1cccc(F)c1 [Example 44, 7-(3-Fluorophenyl)-3-(2-fluorophenyl)-6-(2-methyl-2H-1,2,4-triazol-3-ylmethoxy)-1,2,4-triazolo[4,3-b]pyridazine] | 204 to 206 °C
3 | CC(C)CCc1cc2nnc(-c3ccccc3F)n2nc1OCc1ncnn1C [Example 29, 3-(2-Fluorophenyl)-7-(3-methylbutyl)-6-(2-methyl-2H-1,2,4-triazol-3-ylmethoxy)-1,2,4-triazolo[4,3-b]pyridazine] | 103 to 105 °C
4 | Cn1nccc1COc1nn2c(-c3ccccc3F)nnc2cc1C1CCC1 [Example 26, 7-Cyclobutyl-3-(2-fluorophenyl)-6-(2-methyl-2H-pyrazol-3-ylmethoxy)-1,2,4-triazolo[4,3-b]pyridazine] | 184 to 186 °C
5 | Cc1cc(COc2nn3c(-c4ccccc4F)nnc3cc2C2CCC2)no1 [Example 15, 7-Cyclobutyl-3-(2-fluorophenyl)-6-(5-methylisoxazol-3-ylmethoxy)-1,2,4-triazolo[4,3-b]pyridazine] | 150 °C
6 | Cn1cnc(COc2nn3c(-c4ccc(F)cc4F)nnc3cc2C2(C)CCCCC2)n1 [Example 13, 3-(2,4-Difluorophenyl)-7-(1-methylcyclohexyl)-6-(1-methyl-1H-1,2,4-triazol-3-ylmethoxy)-1,2,4-triazolo[4,3-b]pyridazine] | 156 °C
7 | CC(C)Cc1cc2nnc(-c3ccccc3F)n2nc1OCc1ncnn1C [Example 28, 3-(2-Fluorophenyl)-7-(2-methylpropyl)-6-(2-methyl-2H-1,2,4-triazol-3-ylmethoxy)-1,2,4-triazolo[4,3-b]pyridazine] | 134 to 136 °C
8 | Cn1ncnc1COc1nn2c(-c3ccc(F)cc3F)nnc2cc1C1(C)CCCCC1 [Example 12, 3-(2,4-Difluorophenyl)-7-(1-methylcyclohexyl)-6-(2-methyl-2H-1,2,4-triazol-3-ylmethoxy)-1,2,4-triazolo[4,3-b]pyridazine] | 196 °C
9 | Cn1ccc(COc2nn3c(-c4ccccc4F)nnc3cc2C2CCC2)n1 [Example 14, 7-Cyclobutyl-3-(2-fluorophenyl)-6-(1-methyl-1H-pyrazol-3-ylmethoxy)-1,2,4-triazolo[4,3-b]pyridazine] | 184 to 186 °C
10 | Cn1ncnc1COc1nn2c(-c3ccccc3F)nnc2cc1C1(C)CCOCC1 [Example 36, 3-(2-Fluorophenyl)-7-(4-methyltetrahydropyran-4-yl)-6-(2-methyl-2H-1,2,4-triazol-3-ylmethoxy)-1,2,4-triazolo [4,3-b]pyridazine] | 191 °C
11 | Cn1cnnc1COc1nn2c(-c3ccccc3F)nnc2cc1C1CCC1 [Example 17, 7-Cyclobutyl-3-(2-fluorophenyl)-6-(4-methyl-4H-1,2,4-triazol-3-ylmethoxy)-1,2,4-triazolo[4,3-b]pyridazine] | 228 °C
12 | Cn1ncnc1COc1nn2c(-c3ccccc3F)nnc2cc1C1CCCO1 (stereo not drawn) [Example 43, 3-(2-Fluorophenyl)-6-(2-methyl-2H-1,2,4-triazol-3-ylmethoxy)-7-(tetrahydrofur-2-yl)-1,2,4-triazolo[4,3-b]pyridazine] | 136 to 139 °C
13 | Cn1cnc(COc2nn3c(-c4ccccc4F)nnc3cc2C2(C)CCC(F)(F)CC2)n1 [Example 40, 7-(4,4-Difluoro-1-methylcyclohexyl)-3-(2-fluorophenyl)-6-(1-methyl-1H-1,2,4-triazol-3-ylmethoxy)-1,2,4-triazolo [4,3-b]pyridazine] | 193 °C
14 | Cn1ncnc1COc1nn2c(-c3ccccc3F)nnc2cc1C1CC(F)(F)C1 [Example 42, 7-(3,3-Difluorocyclobutyl)-3-(2-fluorophenyl)-6-(2-methyl-2H-1,2,4-triazol-3-ylmethoxy)-1,2,4-triazolo[4,3-b]pyridazine] | 178 °C
15 | Cn1ncnc1COc1nn2c(-c3ccc(F)cc3F)nnc2cc1-c1cccs1 [Example 19, 3-(2,4-Difluorophenyl)-6-(2-methyl-2H-1,2,4-triazol-3-ylmethoxy)-7-(thien-2-yl)-1,2,4-triazolo[4,3-b]pyridazine] | 209 to 212 °C
16 | Cn1ccnc1COc1nn2c(-c3ccccc3F)nnc2cc1C1CCC1 [Example 16, 7-Cyclobutyl-3-(2-fluorophenyl)-6-(1-methyl-1H-Imidazol-2-ylmethoxy)-1,2,4-triazolo[4,3-b]pyridazine] | 173 °C
17 | Cn1ncnc1COc1nn2c(-c3ccccc3F)nnc2cc1CC1CCCC1 [Example 30, 7-Cyclopentylmethyl-3-(2-fluorophenyl)-6-(2-methyl-2H-1,2,4-triazol-3-ylmethoxy)-1,2,4-triazolo[4,3-b]pyridazine] | 135 to 137 °C
18 | Cn1cnc(COc2nn3c(-c4ccccc4F)nnc3cc2C2CCC2)c1 [Example 24, 7-Cyclobutyl-3-(2-fluorophenyl)-6-(1-methyl-1H-imidazol-4-ylmethoxy)-1,2,4triazolo[4,3-b]pyridazine] | 176 °C
19 | Cn1ncnc1COc1nn2c(-c3ccccc3F)nnc2cc1C1(F)CCC1 [Example 25, 7-(1-Fluorocyclobutyl)-3-(2-fluorophenyl)-6-(2-methyl-2H-1,2,4-triazol-3-ylmethoxy)-1,2,4-triazolo[4,3-b]pyridazine] | 154 to 162 °C
20 | Cn1ncnc1COc1nn2c(-c3ccccc3F)nnc2cc1-c1cccs1 (hydrate or solvate) [Example 18, 3-(2-Fluorophenyl)-6-(2-methyl-2H-1,2,4-triazol-3-ylmethoxy)-7-(thien-2-yl)-1,2,4-triazolo[4,3-b]pyridazine] | 189 to 190 °C
21 | Cn1cnc(COc2nn3c(-c4ccccc4F)nnc3cc2C2(C)CCOCC2)n1 [Example 37, 3-(2-Fluorophenyl)-7-(4-methyltetrahydropyran-4-yl)-6-(1-methyl-1H-1,2,4-triazol-3-ylmethoxy)-1,2,4-triazolo [4,3-b]pyridazine] | 154 °C
